These results are taken from patent publication US12448400B2, “KRAS G12D modulating compounds” (priority 2023, dated 2025).

Read-outs that look alike come from different tables or passages of the source.

By IC50 is commonly meant the concentration needed to halve the response being measured. The term EC50 denotes the concentration at which the effect is half-maximal.

For one assay, the target named is GDP-loaded KRAS G12D (Homo sapiens, UniProt P01116, G12D). Description: KRAS G12D (GDP) biochemical assay, TR-FRET probe displacement. The class given is binding. On the procedure: Example A. KRAS G12D (GDP) Biochemical Assay
Compounds were tested for binding to GDP-loaded KRAS G12D in a 384-well assay format using a TR-FRET probe displacement assay in buffer consisting of 50 mM Hepes (pH 7.4), 150 mM NaCl, 5 mM MgCl2 and 0.005% Tween-20. […] Compounds were serially diluted (1:3) in DMSO. The LabCyte ECHO Acoustic dispenser system was used to pre-spot the assay plates (384-well Non-Binding Surface plates, Corning, Catalog #3824) with 50 nL of compound. The compounds were pre-incubated with 5 μL of 2× final enzyme concentration for 30 minutes before adding 5 μL of 2× final concentration of Eu-streptavidin and TR-FRET probe (10 μL final reaction volume). The plates were incubated at room temperature for 2 hours before measuring TR-FRET ratio on the Envision plate reader. IC50 values were defined as the compound concentration that causes a 50% decrease in TR-FRET ratio and were calculated using a sigmoidal dose-response model to generate curve fits.

A further assay relates to GP2D (KRAS G12D) cells. Description: 2D cell viability assay (CellTiter-Glo). The settings on record: 96 h. It counts as cell-based. As for the experimental part:
Example B. 2D Cell Viability Assay
Compounds were tested in a 384-well format for their ability to inhibit the viability of GP2D (KRAS G12D) cells in 2D assays. Compounds were serially diluted (1:3) in DMSO. The LabCyte ECHO Acoustic dispenser system was used to pre-spot assay plates with 200 nL of test molecule per well. 1000 cells/well (40 μL volume per well) in RPMI medium with 10% FBS, and Penicillin-Streptomycin-Glutamine were plated in pre-spotted 384-well plates (Greiner, Catalog #781076) on the BioTEK EL406 liquid dispenser with a 5 μL dispensing cassette (BioTek 7170011). The plates were incubated at 37° C., 5% CO2 for 4 days before addition of CellTiter-Glo (CTG) reagent and measurement of luminescence signal. EC50 values were defined as the compound concentration that causes a 50% decrease in luminescence signal and were calculated using a sigmoidal dose-response model to generate curve fits.
In general terms: ATP-based viability assays read luminescence as a measure of living cells.

Setting [1] is: 0.5 nM enzyme, 30 min pre-incubation, 2 h incubation, TR-FRET ratio, read-out: G12D IC50.
The mark [2] stands for this setting: GP2D cells, 4 days, CellTiter-Glo luminescence, read-out: G12D 2D EC50.

GDP-loaded KRAS G12D, sequence (P01116 1-188 isoform P01116-2 G12D): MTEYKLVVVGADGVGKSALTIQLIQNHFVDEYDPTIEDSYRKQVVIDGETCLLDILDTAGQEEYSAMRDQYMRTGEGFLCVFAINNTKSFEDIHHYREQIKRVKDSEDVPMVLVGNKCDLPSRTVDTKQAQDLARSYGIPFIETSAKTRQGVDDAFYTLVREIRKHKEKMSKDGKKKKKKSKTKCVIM

Consider `C#Cc1c(F)ccc2cccc(-c3nc4c5c(nc(OC[C@@]67CCCN6C[C@H](F)C7)nc5c3F)N3C[C@H]5CC[C@@H]([C@H]3CCC4)N5Cc3oc(=O)oc3-c3ccccc3)c12` [Example 4, 4-(((6aR,7S,10R)-2-(8-ethynyl-7-fluoronaphthalen-1-yl)-1-fluoro-13-(((2R,7aS)-2-fluorotetrahydro-1H-pyrrolizin-7a(5H)-yl)methoxy)-5,6,6a,7,8,9,10,11-octahydro-4H-3,11a,12,14,15-pentaaza-7,10-methanocyclohepta[4,5]cycloocta[1,2,3-de]naphthalen-15-yl)methyl)-5-phenyl-1,3-dioxol-2-one], for which the IC50 at GDP-loaded KRAS G12D (setting [1]) came out at 3.3 nM. The EC50 in the assay with GP2D (KRAS G12D) cells (setting [2]) was 2.3 nM.
The corresponding values for `C#Cc1c(F)ccc2cccc(-c3nc4c5c(nc(OC[C@@]67CCCN6C[C@H](F)C7)nc5c3F)N3C[C@H]5CC[C@@H]([C@H]3CCC4)N5Cc3c(C)oc(=O)n3C)c12` [Example 5, 4-(((6aR,7S,10R)-2-(8-ethynyl-7-fluoronaphthalen-1-yl)-1-fluoro-13-(((2R,7aS)-2-fluorotetrahydro-1H-pyrrolizin-7a(5H)-yl)methoxy)-5,6,6a,7,8,9,10,11-octahydro-4H-3,11a,12,14,15-pentaaza-7,10-methanocyclohepta[4,5]cycloocta[1,2,3-de]naphthalen-15-yl)methyl)-3,5-dimethyloxazol-2(3H)-one] are 4.7 nM and 78 nM.
The corresponding values for `C#Cc1c(F)ccc2cccc(-c3nc4c5c(nc(OC[C@@]67CCCN6C[C@H](F)C7)nc5c3F)N3C[C@H]5CC[C@@H]([C@H]3CCC4)N5Cc3oc(=O)oc3C(C)(C)C)c12` [Example 6, 4-(tert-butyl)-5-(((6aR,7S,10R)-2-(8-ethynyl-7-fluoronaphthalen-1-yl)-1-fluoro-13-(((2R,7aS)-2-fluorotetrahydro-1H-pyrrolizin-7a(5H)-yl)methoxy)-5,6,6a,7,8,9,10,11-octahydro-4H-3,11a,12,14,15-pentaaza-7,10-methanocyclohepta[4,5]cycloocta[1,2,3-de]naphthalen-15-yl)methyl)-1,3-dioxol-2-one] are 31 nM and 26 nM.
In the same order, the values of `C#Cc1c(F)ccc2cc(O)cc(-c3nc4c5c(nc(OC[C@@]67CCCN6C[C@H](F)C7)nc5c3F)N3C[C@H]5CC[C@@H]([C@@H]3[C@@H](C)C4)N5Cc3oc(=O)oc3C)c12` [Example 7, 4-(((5S,5aS,6S,9R)-2-(8-ethynyl-7-fluoro-3-hydroxynaphthalen-1-yl)-1-fluoro-12-(((2R,7aS)-2-fluorotetrahydro-1H-pyrrolizin-7a(5H)-yl)methoxy)-5-methyl-4,5,5a,6,7,8,9,10-octahydro-3,10a,11,13,14-pentaaza-6,9-methanonaphtho[1,8-ab]heptalen-14-yl)methyl)-5-methyl-1,3-dioxol-2-one] are 2.8 nM and 0.18 nM.
As for `Oc1cc(-c2nc3c4c(nc(OC[C@@]56CCCN5C[C@H](F)C6)nc4c2F)N2C[C@H]4CC[C@H](N4)[C@H]2CCC3)c2c(OC(F)(F)F)c(F)ccc2c1` [Example 18-P, 6-fluoro-4-((6aR,7S,10R)-1-fluoro-13-(((2R,7aS)-2-fluorotetrahydro-1H-pyrrolizin-7a(5H)-yl)methoxy)-5,6,6a,7,8,9,10,11-octahydro-4H-3,11a,12,14,15-pentaaza-7,10-methanocyclohepta[4,5]cycloocta[1,2,3-de]naphthalen-2-yl)-5-(trifluoromethoxy)naphthalen-2-ol], at GDP-loaded KRAS G12D (setting [1]), the IC50 was determined as 0.06 nM. For the same molecule, the EC50 in the assay with GP2D (KRAS G12D) cells (setting [2]) worked out at 0.24 nM.
`C#Cc1c(F)ccc2cc(O)cc(-c3c(F)c4c5c(nc(OC[C@@]67CCCN6C[C@H](F)C7)nc5c3F)N3C[C@H]5CC[C@H](N5)[C@H]3CC4)c12` [Example 37-P, 4-((1S,4R,11R,14aR)-10,12-difluoro-8-(((2R,7aS)-2-fluorotetrahydro-1H-pyrrolizin-7a(5H)-yl)methoxy)-1,2,3,4,5,13,14,14a-octahydro-1,4-epiminoazepino[1′,2′:1,7]azepino[2,3,4-de]quinazolin-11-yl)-5-ethynyl-6-fluoronaphthalen-2-ol]: on GDP-loaded KRAS G12D (setting [1]), the IC50 came out at 0.07 nM. For the same molecule, the EC50 in the assay with GP2D (KRAS G12D) cells (setting [2]) was determined as 0.26 nM.
As to `C#Cc1c(F)ccc2cc(O)cc(-c3nc4c5c(nc(OC[C@@]67CCCN6C[C@H](F)C7)nc5c3F)N3C[C@H]5CC[C@H](N5)[C@@H]3[C@H]3CCC[C@@H]43)c12` [Example 42-P, 5-ethynyl-6-fluoro-4-((3aS,3bS,4S,7R,14bR)-12-fluoro-10-(((2R,7aS)-2-fluorotetrahydro-1H-pyrrolizin-7a(5H)-yl)methoxy)-2,3,3a,3b,4,5,6,7,8,14b-decahydro-1H-8a,9,11,14,15-pentaaza-4,7-methanocyclopenta[d]naphtho[1,8-ab]heptalen-13-yl)naphthalen-2-ol], at GDP-loaded KRAS G12D (setting [1]), the IC50 is 0.15 nM. Also, in the assay on GP2D (KRAS G12D) cells (setting [2]), the EC50 turned out to be 1.7 nM.
`C#Cc1c(F)ccc2cc(OC(=O)N(C)C)cc(-c3nc4c5c(nc(OC[C@@]67CCCN6C[C@H](F)C7)nc5c3F)N3C[C@H]5CC[C@@H]([C@@H]3[C@@H](C)C4)N5Cc3oc(=O)oc3C)c12` [Example 51, 5-ethynyl-6-fluoro-4-((5S,5aS,6S,9R)-1-fluoro-12-(((2R,7aS)-2-fluorotetrahydro-1H-pyrrolizin-7a(5H)-yl)methoxy)-5-methyl-14-((5-methyl-2-oxo-1,3-dioxol-4-yl)methyl)-4,5,5a,6,7,8,9,10-octahydro-3,10a,11,13,14-pentaaza-6,9-methanonaphtho[1,8-ab]heptalen-2-yl)naphthalen-2-yl dimethylcarbamate] had an IC50 at GDP-loaded KRAS G12D of more than 100 nM. Also, the 50% effective concentration (EC50) in the assay on GP2D (KRAS G12D) cells (GP2d, read-out: G12D 2D EC50 (nM)) stood at 34 nM.
Consider `C#Cc1c(F)ccc2cc(O)cc(-c3nc4c5c(nc(OC[C@]6(C)CN(C)CC[C@@H]6C(F)F)nc5c3F)N3C[C@H]5CC[C@H](N5)[C@H]3CCC4)c12` [Example 74-P, 4-((6aR,7S,10R)-13-(((3S,4S)-4-(difluoromethyl)-1,3-dimethylpiperidin-3-yl)methoxy)-1-fluoro-5,6,6a,7,8,9,10,11-octahydro-4H-3,11a,12,14,15-pentaaza-7,10-methanocyclohepta[4,5]cycloocta[1,2,3-de]naphthalen-2-yl)-5-ethynyl-6-fluoronaphthalen-2-ol], for which, on GDP-loaded KRAS G12D (setting [1]), the IC50 worked out at 0.03 nM. Besides, the EC50 in the assay with GP2D (KRAS G12D) cells (setting [2]) was found to be 0.15 nM.
In the case of `[2H]C([2H])([2H])N1CC[C@H](C(F)F)[C@](C)(C([2H])([2H])Oc2nc3c4c(nc(-c5cc(O)cc6ccc(F)c(C#C)c56)c(F)c4n2)CCC[C@@H]2[C@@H]4CC[C@H](CN32)N4)C1` [Example 75-P, 4-((6aR,7S,10R)-13-(((3S,4S)-4-(difluoromethyl)-3-methyl-1-(methyl-d3)piperidin-3-yl)methoxy-d2)-1-fluoro-5,6,6a,7,8,9,10,11-octahydro-4H-3,11a,12,14,15-pentaaza-7,10-methanocyclohepta[4,5]cycloocta[1,2,3-de]naphthalen-2-yl)-5-ethynyl-6-fluoronaphthalen-2-ol], the IC50 on GDP-loaded KRAS G12D (setting [1]) amounted to 0.03 nM. The EC50 in the assay with GP2D (KRAS G12D) cells (setting [2]) was found to be 0.1 nM.
